In patent publication US20160355530A1, “HEPATITIS C INHIBITORS AND USES THEREOF” (AbbVie Inc., priority 2010, published 2016):
Like-named read-outs stand apart in the source and are kept apart here.

Experiments:
[1] = biological target: T1, HCV NS5B polymerase 1a-H77 (Hepatitis C virus genotype 1a, UniProt P27958); experiment: biochemical; parameters: species or system HCV genotype 1a; conditions: enzyme, strain 1a H77; read-out: HCV Polymerase Strain 1a H77 IC50
T1 construct: six-histidine tag; made in house; host or cells: E. coli
T1 sequence (P27958 2421-2990): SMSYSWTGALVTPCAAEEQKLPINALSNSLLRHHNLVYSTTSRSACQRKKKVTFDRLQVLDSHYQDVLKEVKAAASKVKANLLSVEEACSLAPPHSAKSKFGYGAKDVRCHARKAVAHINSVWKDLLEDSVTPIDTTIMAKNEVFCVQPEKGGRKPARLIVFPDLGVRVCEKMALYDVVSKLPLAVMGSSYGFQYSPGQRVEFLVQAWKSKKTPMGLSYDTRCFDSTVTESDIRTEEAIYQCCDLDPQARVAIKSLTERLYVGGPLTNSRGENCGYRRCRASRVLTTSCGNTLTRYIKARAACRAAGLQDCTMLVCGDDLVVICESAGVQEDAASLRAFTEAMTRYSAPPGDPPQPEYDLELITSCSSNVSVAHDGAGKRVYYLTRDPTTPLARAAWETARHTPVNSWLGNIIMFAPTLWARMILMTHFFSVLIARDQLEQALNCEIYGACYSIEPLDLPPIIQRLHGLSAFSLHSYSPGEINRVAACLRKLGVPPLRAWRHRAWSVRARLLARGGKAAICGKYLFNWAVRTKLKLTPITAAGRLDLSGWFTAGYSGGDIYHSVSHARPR
Procedure, shortened: (§1)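 Incorporation of [3H]UTP (0.284 μM), alongside 20 μM each CTP and ATP, into RNA copied from a 5 nM 2.1 kb genotype 1b negative-strand template was measured after 3 h at 30° C using purified His-tagged NS5B truncated at residue 570. Product was spermine-precipitated, filtered and scintillation-counted; nonlinear regression gave IC50.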

[2] = biological target: T2, HCV NS5B polymerase 1a-H77-C316Y (Hepatitis C virus genotype 1a, UniProt P27958, C2736Y); experiment: biochemical; parameters: species or system HCV genotype 1a
T2 construct: six-histidine tag; made in house; host or cells: E. coli
T2 sequence (P27958 2421-2990 C2736Y): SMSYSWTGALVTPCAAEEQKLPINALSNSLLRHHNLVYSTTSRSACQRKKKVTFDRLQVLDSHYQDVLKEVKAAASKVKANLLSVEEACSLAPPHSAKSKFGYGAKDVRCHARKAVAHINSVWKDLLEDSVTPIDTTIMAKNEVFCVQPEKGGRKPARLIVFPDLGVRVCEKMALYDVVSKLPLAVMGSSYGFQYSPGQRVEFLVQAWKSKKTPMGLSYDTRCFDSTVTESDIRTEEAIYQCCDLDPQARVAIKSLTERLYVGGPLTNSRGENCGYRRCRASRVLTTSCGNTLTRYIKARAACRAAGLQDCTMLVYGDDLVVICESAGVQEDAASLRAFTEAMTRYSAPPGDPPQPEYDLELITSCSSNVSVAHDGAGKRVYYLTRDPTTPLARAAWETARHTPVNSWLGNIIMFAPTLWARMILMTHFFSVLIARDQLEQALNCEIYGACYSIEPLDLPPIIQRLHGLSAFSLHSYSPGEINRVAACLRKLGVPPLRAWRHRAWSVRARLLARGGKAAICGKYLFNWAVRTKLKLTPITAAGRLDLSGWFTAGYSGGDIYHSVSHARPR
Procedure, shortened: as §1

[3] = test system: HCV NS5B polymerase 1a-H77-C316Y; experiment: biochemical; parameters: species or system HCV genotype 1a; conditions: ratio of enzyme IC50s, 1a H77-C316Y / 1a H77
Procedure, shortened: as §1

[4] = biological target: T3, HCV NS5B polymerase 1b BK strain (Hepatitis C virus genotype 1b, UniProt P26663); experiment: HCV NS5B polymerase enzymatic inhibition assay, strain 1b BK; type: biochemical; conditions: enzyme, strain 1b BK; read-out: HCV Polymerase Strain 1b BK IC50
T3 construct: six-histidine tag; made in house; host or cells: E. coli
T3 sequence (P26663 2420-2989): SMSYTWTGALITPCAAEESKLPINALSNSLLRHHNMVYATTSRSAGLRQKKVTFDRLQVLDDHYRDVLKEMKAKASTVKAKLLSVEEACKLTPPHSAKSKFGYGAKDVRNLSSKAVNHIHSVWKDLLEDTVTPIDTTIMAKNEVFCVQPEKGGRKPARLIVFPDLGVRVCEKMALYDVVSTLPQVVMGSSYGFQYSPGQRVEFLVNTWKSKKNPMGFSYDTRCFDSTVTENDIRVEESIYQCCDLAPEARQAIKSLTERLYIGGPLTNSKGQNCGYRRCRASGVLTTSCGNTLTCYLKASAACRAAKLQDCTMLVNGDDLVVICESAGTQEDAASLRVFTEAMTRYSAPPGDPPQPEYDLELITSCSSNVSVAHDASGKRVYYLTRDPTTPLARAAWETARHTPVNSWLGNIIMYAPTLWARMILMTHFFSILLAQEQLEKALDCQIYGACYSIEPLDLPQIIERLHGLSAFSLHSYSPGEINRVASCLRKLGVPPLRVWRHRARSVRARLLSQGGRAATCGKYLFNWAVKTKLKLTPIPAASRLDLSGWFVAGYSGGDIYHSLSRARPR
Procedure, shortened: as §1

[5] = test system: HCV 1a-H77 subgenomic replicon; experiment: microbe, parasite or virus in culture; type: cell-based, HCV genotype 1a; conditions: Hepatitis C virus, stable replicon
[6] = test system: HCV 1b-BB7 subgenomic replicon; experiment: microbe, parasite or virus in culture; type: cell-based, HCV genotype 1b; conditions: Hepatitis C virus, stable replicon
[7] = test system: chimeric replicon with 2a-J6CF-derived NS5B; experiment: microbe, parasite or virus in culture; type: cell-based, HCV genotype 2a; conditions: Hepatitis C virus, read-out: 2a chimera 5% FBS EC50
[8] = test system: chimeric replicon with genotype 2b NS5B; experiment: microbe, parasite or virus in culture; type: cell-based, HCV genotype 2b; conditions: Hepatitis C virus, read-out: 2b chimera 5% FBS EC50
[9] = test system: chimeric replicon with genotype 3a NS5B; experiment: microbe, parasite or virus in culture; type: cell-based, HCV genotype 3a; conditions: Hepatitis C virus, read-out: 3a chimera 5% FBS EC50
[10] = test system: chimeric replicon with genotype 4a NS5B; experiment: microbe, parasite or virus in culture; type: cell-based, HCV genotype 4a; conditions: Hepatitis C virus, read-out: 4a chimera 5% FBS EC50
[11] = 5% FBS, absence of human plasma, read-out: Stable Replicon 1a H77 5% FBS EC50
[12] = strain 1a H77, 5% FBS + 40% human plasma, read-out: 1a H77 5% FBS + 40% Human Plasma EC50
[13] = strain 1a H77, 5% FBS, no human plasma, read-out: 1a H77 5% FBS EC50
[14] = strain 1a H77, 5% FBS, read-out: 1a H77 5% FBS EC50
[15] = strain 1b BB7, 5% FBS + 40% human plasma, read-out: 1b BB7 5% FBS + 40% Human Plasma EC50
[16] = strain 1b BB7, 5% FBS, no human plasma, read-out: 1b BB7 5% FBS EC50
[17] = strain 1b BB7, 5% FBS, read-out: 1b BB7 5% FBS EC50

| Structure (SMILES) | IC50 [1] [nM] | IC50 [2] [nM] | C316Y/1a Fold Resistance [3] [fold] | IC50 [4] [nM] | EC50 [5, 11] [nM] | EC50 [5, 12] [nM] | EC50 [5, 13] [nM] | EC50 [5, 14] [nM] | EC50 [6, 15] [nM] | EC50 [6, 16] [nM] | EC50 [6, 17] [nM] | EC50 [7] [nM] | EC50 [8] [nM] | EC50 [9] [nM] | EC50 [10] [nM] |
| --- | --- | --- | --- | --- | --- | --- | --- | --- | --- | --- | --- | --- | --- | --- | --- |
| Cn1cc(-c2ncc(CN(c3ccc4c(-c5ncc[nH]5)c(-c5ccccc5)oc4c3)S(C)(=O)=O)s2)cn1 [Example 26, N-[3-(1H-imidazol-2-yl)-2-phenyl-1-benzofuran-6-yl]-N-{[2-(1-methyl-1H-pyrazol-4-yl)-1,3-thiazol-5-yl]methyl}methanesulfonamide] | 12 | 30 | 3 | 10 | 343 | 10000 | 343 | 343 | 5450 | 15 | 15 | 277 | 497 | 5.2 | 377 |
| CS(=O)(=O)N(CCCCC(F)=C(F)F)c1cc2oc(-c3ccc(F)cc3)c(C3=NOCCN3)c2cc1C1CC1 [Example 120, N-[5-cyclopropyl-3-(5,6-dihydro-4H-1,2,4-oxadiazin-3-yl)-2-(4-fluorophenyl)-1-benzofuran-6-yl]-N-(5,6,6-trifluorohex-5-en-1-yl)methanesulfonamide] | 5 | 28 | 6 | 47 | 17.5 | 190 | 17.5 | 17.5 | 189 | 18 | 18 | 125 | 157 | 36 | 82 |
| CS(=O)(=O)N(CCCC#N)c1cc2oc(-c3ccc(F)cc3)c(C3=NOCCN3)c2cc1C1CC1 [Example 133, N-(3-cyanopropyl)-N-[5-cyclopropyl-3-(5,6-dihydro-4H-1,2,4-oxadiazin-3-yl)-2-(4-fluorophenyl)-1-benzofuran-6-yl]methanesulfonamide] | 8 | 50 | 6 | 46 | 6.3 | 37 | 6.3 | 6.32 | 55 | 6 | 6 | 92 | 82 | 11 | 75 |
| CS(=O)(=O)N(CCCn1cccc1)c1cc2oc(-c3ccc(F)cc3)c(C3=NOCCN3)c2cc1C1CC1 [Example 119, N-[5-cyclopropyl-3-(5,6-dihydro-4H-1,2,4-oxadiazin-3-yl)-2-(4-fluorophenyl)-1-benzofuran-6-yl]-N-[3-(1H-pyrrol-1-yl)propyl]methanesulfonamide] | 7 | 41 | 6 | 38 | 19.4 | 247 | 19.4 | 19.4 | 129 | 17 | 17 | 79 | 189 | 30 | 142 |
| CS(=O)(=O)N(CCN1CCOCC1)c1cc2oc(-c3ccc(F)cc3)c(-c3ncc[nH]3)c2cc1C1CC1 [Example 58, N-[5-cyclopropyl-2-(4-fluorophenyl)-3-(1H-imidazol-2-yl)-1-benzofuran-6-yl]-N-[2-(morpholin-4-yl)ethyl]methanesulfonamide] | 7.3 | 133 | 18 | 29 | 21.8 | 333 | 21.8 | 21.8 | 193 | 11.9 | 11.9 | 78.9 | 130 | 9.8 | 130 |
